Among the test systems are HCT-116 colon; A549 NSCLC; NCI-H226 lung; RXF 393 renal; HCT-15 colon; TK-10 renal.
What all share (test): DTP human tumour cell line panel, 48 h

The source of these data is PubChem BioAssay (NCI).

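Five concentrations, 48 hours, 96-well plates. Here, GI50 denotes the concentration required for 50% inhibition of growth. TGI denotes the concentration required for complete inhibition of growth.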

With `CO[C@H]1O[C@@H]2CO[C@@H](c3ccccc3)O[C@H]2C[C@]12CCC/C=C\CO2`, the TGI (usually the concentration at which net growth stops) in the assay on HCT-116 colon was 23.5 µM; in the assay on A549 NSCLC it was > 75 µM; in the assay on NCI-H226 lung it was 50.9 µM; with RXF 393 renal it was 28.3 µM; in the assay on HCT-15 colon, 27.5 µM; with TK-10 renal, 59.2 µM.

In the case of `Fc1ccc(C(OCCN2CCC3CCC(C2)N3Cc2cc3ccccc3[nH]2)c2ccc(F)cc2)cc1` (centres undefined), the concentration for total growth inhibition (TGI) in the assay on HCT-116 colon stood at 2.6 µM; in the assay on A549 NSCLC, 4.26 µM; in the assay on NCI-H226 lung it was 3.41 µM; in the assay on RXF 393 renal, 3.12 µM; in the assay on HCT-15 colon, 2.38 µM; in the assay with TK-10 renal it was 5.38 µM.

Take `O=C1c2ccccc2C(=O)N1c1ccc(OCCN2CCCCC2)cc1`: the TGI in the assay on HCT-116 colon, in the assay with A549 NSCLC, in the assay with NCI-H226 lung, in the assay with RXF 393 renal, in the assay with HCT-15 colon and in the assay with TK-10 renal was > 100 µM each time.

Regarding `CC(=O)OC[C@@]12C[C@H]3C(=O)C(C)(C)C[C@H]3[C@]1(C)[C@@H](OC(C)=O)[C@]1(O)[C@H]([C@@H](OC(=O)c3ccccc3)[C@@H](C)[C@H]1OC(C)=O)[C@H]2OC(C)=O`, the TGI in the assay on HCT-116 colon, with NCI-H226 lung, with RXF 393 renal, in the assay on HCT-15 colon and with TK-10 renal was > 20 µM throughout.

Turning to `COc1nc(=O)n(C2CC(N=[N+]=[N-])C(CO)O2)cc1C` (centres undefined), the TGI in the assay with HCT-116 colon, with A549 NSCLC, with NCI-H226 lung, with HCT-15 colon and in the assay with TK-10 renal was > 100 µM in each case.

As to `CCCCCCCSCC(O)COC(c1ccccc1)(c1ccccc1)c1ccccc1` (centres undefined), the TGI with HCT-116 colon is > 100 µM; with A549 NSCLC it was > 100 µM; in the assay with NCI-H226 lung it was 85 µM; in the assay with HCT-15 colon, > 100 µM; in the assay with TK-10 renal it was > 100 µM.

As for `N#Cc1c(NC(=S)NCc2ccccc2)sc2c1CCN(N1CCc3c(sc(NC(=S)NCc4ccccc4)c3C#N)C1)C2`, the TGI with HCT-116 colon, in the assay with A549 NSCLC, in the assay with NCI-H226 lung, in the assay with RXF 393 renal, in the assay with HCT-15 colon and in the assay with TK-10 renal was > 100 µM in each case.

Consider `C#CCOC(=O)c1ccccc1OC(C)=O`, for which the TGI in the assay on HCT-116 colon, in the assay with NCI-H226 lung, with RXF 393 renal, in the assay with HCT-15 colon and in the assay with TK-10 renal was > 100 µM in each case.

With `CC12ON=C(c3ccccc3)N1C=CN1C(c3ccccc3)=NOC12` (centres undefined), the TGI with HCT-116 colon, in the assay with A549 NSCLC, with NCI-H226 lung, in the assay on RXF 393 renal, with HCT-15 colon and in the assay with TK-10 renal was > 100 µM in each case.

For the molecule `O=[N+]([O-])C1(C2([N+](=O)[O-])CCCC2)CCCC1`, the TGI with HCT-116 colon, in the assay on A549 NSCLC, in the assay on NCI-H226 lung, with RXF 393 renal, in the assay on HCT-15 colon and with TK-10 renal was > 100 µM each time.

For `O=C(CCN1CCCC1)Nc1ccc2c(NCCCc3ccccc3)c3ccccc3nc2c1`, the GI50 – broadly, the concentration that inhibits growth by half – is 1.27 µM with NCI-H226 lung, 0.918 µM with RXF 393 renal, 2.62 µM with HCT-15 colon and 1.66 µM in the assay on TK-10 renal. Also, the total growth inhibition concentration (TGI) in the assay on NCI-H226 lung worked out at 2.83 µM; in the assay on RXF 393 renal, 2.2 µM; in the assay on HCT-15 colon, 10.5 µM; in the assay with TK-10 renal, 3.41 µM.

Turning to `COc1cc2c(cc1OC)CCN=C2`, the TGI in the assay on HCT-116 colon, with NCI-H226 lung, in the assay on RXF 393 renal, in the assay on HCT-15 colon and with TK-10 renal was > 100 µM in each case.

Consider `Cc1cc2c(-c3ccccc3)cc(=O)[nH]c2cc1N`, for which the TGI in the assay with HCT-116 colon, in the assay with A549 NSCLC, in the assay with NCI-H226 lung, in the assay on RXF 393 renal and in the assay with HCT-15 colon was > 100 µM each time.

Take `O=C(/C=C/c1ccc(Cl)c(Cl)c1)Oc1ccc(/C=C2\CCCCC2=O)cc1`: the TGI in the assay on HCT-116 colon, in the assay on A549 NSCLC, with HCT-15 colon and in the assay on TK-10 renal was > 100 µM in each case.

`NC(CCCCNc1ccn(C2OC(CO)C(O)C2O)c(=O)n1)C(=O)O` (centres undefined): the TGI in the assay on A549 NSCLC, in the assay on NCI-H226 lung, in the assay on RXF 393 renal, in the assay on HCT-15 colon and with TK-10 renal was > 100 µM in each case.

For `CN1C[C@@H]2CCCN2P1Oc1cccc2cccnc12` (some centres undefined), the concentration for total growth inhibition (TGI) in the assay on HCT-116 colon is 89 µM; with A549 NSCLC, > 100 µM; with NCI-H226 lung, > 100 µM; in the assay with RXF 393 renal it was > 100 µM; with HCT-15 colon it was > 100 µM; in the assay on TK-10 renal, > 100 µM.

On to `Nc1ncc(Cc2nc3ccccc3s2)s1`, for which the TGI in the assay with HCT-116 colon is > 100 µM; with A549 NSCLC, > 100 µM; in the assay with NCI-H226 lung, 92.8 µM; in the assay with RXF 393 renal it was > 100 µM; in the assay on HCT-15 colon, > 100 µM; in the assay with TK-10 renal it was > 100 µM.

As for `C[N+]1(C)CN(c2ccccc2)C2(CCN(CCCC(=O)c3cccs3)CC2)C1=O`, the TGI with HCT-116 colon, in the assay with A549 NSCLC, in the assay on NCI-H226 lung, with RXF 393 renal, in the assay on HCT-15 colon and in the assay on TK-10 renal was > 100 µM each time.

Regarding `NC(=O)N(O)c1cccc(Br)c1`, the TGI in the assay on HCT-116 colon, with A549 NSCLC, in the assay on NCI-H226 lung, in the assay on RXF 393 renal, in the assay on HCT-15 colon and with TK-10 renal was > 100 µM throughout.

On to `O=C(NC(Nc1ccc(F)c(Cl)c1)(C(F)(F)F)C(F)(F)F)C(C(F)(F)F)C(F)(F)F`, for which the TGI in the assay on HCT-116 colon was 41.7 µM; with A549 NSCLC, > 100 µM; with NCI-H226 lung it was 64.7 µM; in the assay on RXF 393 renal, 63.4 µM; with HCT-15 colon, > 100 µM; with TK-10 renal, > 100 µM.

Take `COCN1C(=O)[C@@H]2CCCN2C(=O)c2cc([N+](=O)[O-])ccc21`: the TGI with HCT-116 colon is > 100 µM; in the assay with A549 NSCLC, > 100 µM; with NCI-H226 lung it was > 100 µM; in the assay on RXF 393 renal, 39.9 µM; in the assay on HCT-15 colon it was > 100 µM; in the assay on TK-10 renal, > 100 µM.
